The source of these data is patent US20250188057A1, “NON-AROMATIC CYCLIC-PYRIMIDINE ANALOGS AS GLUCOSYLCERAMIDE SYNTHASE INHIBITORS” (Merck Sharp & Dohme LLC, priority 2022, published 2025).

Molecules are shown by their SMILES. pIC50: −log10 of the molar value.

The target in the experiment is glucosylceramide synthase (GCS) (Homo sapiens (Human), UniProt Q16739). The experiment can be described thus: UDP-Glo glucosylceramide synthase biochemical assay. As to conditions: endogenous GCS in Golgi preparations isolated from human A375 malignant melanoma skin cells; UDP detection by luminescence. From the text: A UDP-Glo™ glucosylceramide synthase biochemical assay was utilized to evaluate the effect of test compounds on the activity of endogenous levels of GCS enzyme contained within Golgi preparations isolated from human A375 malignant melanoma skin cells. The UDP-Glo™ glucosylceramide synthase assay uses UDP-Glucose as a nucleotide-glycosyl donor and ceramide as substrate acceptor molecules. In the reaction, glucosylceramide synthase (GCS) transfers glucose from UDP-Glucose to ceramide. Glucosylceramide and UDP are released as products.
Chain of glucosylceramide synthase (GCS) (Q16739 whole entry): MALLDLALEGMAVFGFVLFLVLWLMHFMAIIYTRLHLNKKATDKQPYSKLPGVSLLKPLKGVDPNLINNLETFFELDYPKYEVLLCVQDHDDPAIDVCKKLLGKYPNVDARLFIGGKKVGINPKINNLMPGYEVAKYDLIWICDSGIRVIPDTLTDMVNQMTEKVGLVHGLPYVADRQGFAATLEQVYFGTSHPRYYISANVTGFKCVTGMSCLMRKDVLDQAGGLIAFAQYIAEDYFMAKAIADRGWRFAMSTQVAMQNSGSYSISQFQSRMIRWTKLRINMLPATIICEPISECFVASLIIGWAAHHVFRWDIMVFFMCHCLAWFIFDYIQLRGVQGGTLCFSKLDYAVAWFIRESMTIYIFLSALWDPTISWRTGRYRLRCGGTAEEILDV
Using Promega's UDP-Glo™ Glycosyltransferase assay kit (Promega Corporation, Madison, WI, USA (Promega)), GCS activity was indirectly measured by detecting the amount of UDP produced. An aliquot of GCS enzyme (1.5 μg crude golgi preparation, total protein) and titrated test compound were aliquoted to each well and incubated for 30 minutes at room temperature. […] An equivalent volume of substrate mixture was then added to each well. Following a 20 h incubation at room temperature to allow for GCS turnover of substrate, an equal volume of UDP detection reagent (Promega) was added to each well and incubated for an additional 75 minutes at room temperature to simultaneously convert the accumulated UDP product into ATP and generate light in a luciferase reaction. The generated light was detected using a luminometer. […] luminescence values (RLUs) were normalized to mean “min” and “max” effects, as determined on each plate. “Min” was defined as the mean of the values of the wells treated with vehicle (DMSO) and which represent 0% inhibition; “max” was defined as the mean of the values of the wells treated with a reference inhibitor and which represent the 100% effect. Values for % Emax and EC50 were determined by best-fitting the normalized data to a curve in Activity Base along a four-parameter logistic nonlinear regression (4PL) model (based on the Levenberg-Marquardt algorithm and defined by the equation below): […]
where: n is 4PMin (bottom of the curve); m is 4PMax (top of the curve); i is IP (inflection point of curve); and p is slope. See Levenberg, K., “A Method for the Solution of Certain Problems in Least Squares”, Quart. Appl. Math. 2, (1944), pp 164-168 and Marquardt, D., “An Algorithm for Least Squares Estimation on Nonlinear Parameters”, SIAM J. Appl. Math 11, (1963) pp 431-441.
In turn, `OCc1c(Cl)nc(C2CC2)nc1N1Cc2nc(-c3ccccc3)oc2C1` [Compound 112, (4-chloro-2-cyclopropyl-6-(2-phenyl-4,6-dihydro-5H-pyrrolo[3,4-d]oxazol-5-yl)pyrimidin-5-yl)methanol] had a pIC50 of 5.63. `N#Cc1cnc(C2CC2)nc1N1CCC(N2CCN(Cc3ccc(F)cc3)S2(=O)=O)CC1` [Compound 78, 2-cyclopropyl-4-(4-(5-(4-fluorobenzyl)-1,1-dioxido-1,2,5-thiadiazolidin-2-yl)piperidin-1-yl)pyrimidine-5-carbonitrile] showed a pIC50 of 5.75. As for `N#Cc1cnc(C2CC2)nc1N1CCc2nc[nH]c2C1c1cccc(F)c1` (stereo not drawn) [Compound 66, 2-cyclopropyl-4-(4-(3-fluorophenyl)-3,4,6,7-tetrahydro-5H-imidazo[4,5-c]pyridin-5-yl)pyrimidine-5-carbonitrile], the figure is 5.69.

As for `N#Cc1cnc(C2CC2)nc1OC[C@H]1CCN(c2ccc(-c3ncco3)cc2)C1` [Compound 11, (S)-2-cyclopropyl-4-((1-(4-(oxazol-2-yl)phenyl)pyrrolidin-3-yl)methoxy)pyrimidine-5-carbonitrile], the pIC50 was 7.46. `Cc1nc2c(s1)CCCC2Nc1nc(C2CC2)nc(Cl)c1CO` (stereo not drawn) [Compound 109, (4-chloro-2-cyclopropyl-6-((2-methyl-4,5,6,7-tetrahydrobenzo[d]thiazol-4-yl)amino)pyrimidin-5-yl)methanol]: the pIC50 is 6.23. As to `N#Cc1cnc(C2CC2)nc1N1Cc2cccn3c(C(=O)NCC4CC4)cc(c23)C1` [Compound 65, 2-(5-cyano-2-cyclopropylpyrimidin-4-yl)-N-(cyclopropylmethyl)-2,3-dihydro-1H-pyrrrolo[3,2,1-ij][1,6]naphthyridine-5-carboxamide], the pIC50 is 6.92. Regarding `CCNC(=O)[C@]12CN(c3nc(C4CC4)ncc3C#N)C[C@H]1C(Oc1ccccc1)=NO2` [Compound 77, (3aR)-5-(5-cyano-2-cyclopropylpyrimidin-4-yl)-N-ethyl-3-phenoxy-3a,4,5,6-tetrahydro-6aH-pyrrolo[3,4-b]isoxazole-6a-carboxamide], the pIC50 was 6.18. The figure for `N#Cc1cnc(C2CC2)nc1OC[C@H]1CCN(C2CCC(F)(F)CC2)C1` [Compound 108, (S)-2-cyclopropyl-4-((1-(4,4-difluorocyclohexyl)pyrrolidin-3-yl)methoxy)pyrimidine-5-carbonitrile] is 5.40. `N#Cc1cnc(C2CC2)nc1OC[C@H]1CCN(c2cnc(-c3ccccc3)o2)C1` [Compound 8, (S)-2-cyclopropyl-4-((1-(2-phenyloxazol-5-yl)pyrrolidin-3-yl)methoxy)pyrimidine-5-carbonitrile]: the pIC50 is 6.05. Take `OCc1cnc(C2CC2)nc1OC[C@H]1CCN(c2ccc(C(F)(F)F)nc2)C1` [Compound 1, (S)-(2-cyclopropyl-4-((1-(6-(trifluoromethyl)pyridin-3-yl)pyrrolidin-3-yl)methoxy)pyrimidin-5-yl)methanol]: the pIC50 is 6.24. The figure for `Cc1nc(N2CC(c3nc4ccccc4n3C)C2)cc(N2CC3(CCCC3)CC2=O)n1` [Compound 120, 2-(2-methyl-6-(3-(1-methyl-1H-benzo[d]imidazol-2-yl)azetidin-1-yl)pyrimidin-4-yl)-2-azaspiro[4.4]nonan-3-one] is 5.38; for `OCc1c(Cl)nc(C2CC2)nc1N1CCC[C@@H]1c1ncc(-c2ccccc2)s1` [Compound 113, (R)-(4-chloro-2-cyclopropyl-6-(2-(5-phenylthiazol-2-yl)pyrrolidin-1-yl)pyrimidin-5-yl)methanol] it is 6.12; for `N#Cc1cnc(C2CC2)nc1NC1CCN(Cc2ccccc2)C1c1ccccc1` (stereo not drawn) [Compound 82, 4-((1-benzyl-2-phenylpyrrolidin-3-yl)amino)-2-cyclopropylpyrimidine-5-carbonitrile] it is 6.11. The figure for `CCOc1ccc(N2CC[C@H](COc3nc(C4CC4)ncc3C#N)C2)cn1` [Compound 25, (S)-2-cyclopropyl-4-((1-(6-ethoxypyridin-3-yl)pyrrolidin-3-yl)methoxy)pyrimidine-5-carbonitrile] is 6.64; for `N#Cc1cnc(C2CC2)nc1N1CCC(N(C2CC2)S(=O)(=O)c2ccccc2)CC1` [Compound 83, N-(1-(5-cyano-2-cyclopropylpyrimidin-4-yl)piperidin-4-yl)-N-cyclopropylbenzenesulfonamide] it is 5.80; for `N#Cc1cnc(C2CC2)nc1N1CCC2(CC1)NC(=O)Nc1ccccc12` [Compound 75, 2-cyclopropyl-4-(2′-oxo-2′,3′-dihydro-1′H-spiro[piperidine-4,4′-quinazolin]-1-yl)pyrimidine-5-carbonitrile] it is 5.96. Take `N#Cc1cnc(C2CC2)nc1OC[C@H]1CCN(c2cccc(-c3nccs3)c2)C1` [Compound 10, (S)-2-cyclopropyl-4-((1-(3-(thiazol-2-yl)phenyl)pyrrolidin-3-yl)methoxy)pyrimidine-5-carbonitrile]: the pIC50 was 6.60.

Consider `N#Cc1cnc(C2CC2)nc1N1CCC2(CC1)Cc1cc(F)ccc1O2` [Compound 64, 2-cyclopropyl-4-(5-fluoro-3H-spiro[benzofuran-2,4′-piperidin]-1′-yl)pyrimidine-5-carbonitrile], for which the pIC50 is 5.87.

For the molecule `N#Cc1cnc(C2CC2)nc1N(CC1CCC1)CC1CCCO1` (stereo not drawn) [Compound 90, 4-((cyclobutylmethyl)((tetrahydrofuran-2-yl)methyl)amino)-2-cyclopropylpyrimidine-5-carbonitrile], the pIC50 was 5.79.

For the molecule `N#Cc1cnc(C2CC2)nc1OC[C@H]1CCN(c2csc3c(Cl)ncnc23)C1` [Compound 39, (S)-4-((1-(4-chlorothieno[3,2-d]pyrimidin-7-yl)pyrrolidin-3-yl)methoxy)-2-cyclopropylpyrimidine-5-carbonitrile], the pIC50 is 5.40.

`COc1ccc2c(c1)C(Nc1nc(C3CC3)ncc1C#N)CC2` (stereo not drawn) [Compound 63, 2-cyclopropyl-4-((6-methoxy-2,3-dihydro-1H-inden-1-yl)amino)pyrimidine-5-carbonitrile] had a negative-log IC50 (pIC50) of 8.07. `N#Cc1cnc(C2CC2)nc1N1CCC(O)(c2cccc(C(F)(F)F)c2)CC1` [Compound 73, 2-cyclopropyl-4-(4-hydroxy-4-(3-(trifluoromethyl)phenyl)piperidin-1-yl)pyrimidine-5-carbonitrile]: the pIC50 was 5.95.

`COC[C@@H](c1ccc(C(F)(F)F)cc1)N1CCN(c2nc(C3CC3)ncc2C#N)C[C@@H]1C` [Compound 81, 2-cyclopropyl-4-((S)-4-((R)-2-methoxy-1-(4-(trifluoromethyl)phenyl)ethyl)-3-methylpiperazin-1-yl)pyrimidine-5-carbonitrile] gave a pIC50 of 6.23. In the case of `N#Cc1cnc(C2CC2)nc1NC1CCc2ccc(O)cc21` (stereo not drawn) [Compound 91, 2-cyclopropyl-4-((6-hydroxy-2,3-dihydro-1H-inden-1-yl)amino)pyrimidine-5-carbonitrile], the pIC50 was 6.42. As to `N#Cc1cnc(C2CC2)nc1N(CC1CCCO1)CC1CC2C=CC1C2` (stereo not drawn) [Compound 74, 4-((bicyclo[2.2.1]hept-5-en-2-ylmethyl)((tetrahydrofuran-2-yl)methyl)amino)-2-cyclopropylpyrimidine-5-carbonitrile], the pIC50 is 6.56. For the molecule `CC(C)c1nc(-c2cccnc2N2CCN(c3nc(C4CC4)ncc3C#N)CC2)no1` [Compound 93, 2-cyclopropyl-4-(4-(3-(5-isopropyl-1,2,4-oxadiazol-3-yl)pyridin-2-yl)piperazin-1-yl)pyrimidine-5-carbonitrile], the negative logarithm of the IC50 (pIC50) was 7.32. As for `N#Cc1cnc(C2CC2)nc1OC1CN(Cc2ccc(F)cc2)C1` [Compound 60, 2-cyclopropyl-4-((1-(4-fluorobenzyl)azetidin-3-yl)oxy)pyrimidine-5-carbonitrile], the figure is 5.40; as for `OCc1cnc(C2CC2)nc1OCC1CCN(c2ccc(C(F)(F)F)nc2)CC1` [Compound 5, (2-cyclopropyl-4-((1-(6-(trifluoromethyl)pyridin-3-yl)piperidin-4-yl)methoxy)pyrimidin-5-yl)methanol], 5.47; as for `OCc1cnc(C2CC2)nc1OC[C@@H]1CCN(c2ccc(C(F)(F)F)nc2)C1` [Compound 2, (R)-(2-cyclopropyl-4-((1-(6-(trifluoromethyl)pyridin-3-yl)pyrrolidin-3-yl)methoxy)pyrimidin-5-yl)methanol], 6.25. The figure for `OCc1c(Cl)nc(C2CC2)nc1NC1CCCc2sc(C3CCCCC3)nc21` (stereo not drawn) [Compound 115, (4-chloro-6-((2-cyclohexyl-4,5,6,7-tetrahydrobenzo[d]thiazol-4-yl)amino)-2-cyclopropylpyrimidin-5-yl)methanol] is 8.12.
